# Laboratory results published in publication PMC8308870 (2021).
# Assays:
# [1] = tested on: h-Telo (FRET) (DNA, G4) GGGTTAGGGTTAGGGTTAGGG; assay: FRET melting; settings: 60 mM K+, pH 7.4, 0.2 µM DNA
# [2] = tested on: k-RAS (CD) (DNA, G4) AGGGCGGTGTGGGAAGAGGGA; assay: CD titration; settings: 50 mM K+, 50 mM LiCl; 20 mM lithium cacodylate, 20 °C; 10 µM DNA, 0–25 eq; ellipticity decrease, 295 nm band
# [3] = tested on: h-Telo (CD) (DNA, G4) GGGTTAGGGTTAGGGTTAGGG; assay: CD titration; settings: 10 mM K+, 90 mM LiCl, 20 mM lithium cacodylate, 20 °C, 10 µM DNA, 0–25 eq
# [4] = tested on: h-Telo (CD) (DNA, G4) GGGTTAGGGTTAGGGTTAGGG; assay: CD melting (290 nm); settings: 10 mM K+, 90 mM LiCl; 20 mM lithium cacodylate, pH 7.2; 10 µM DNA; compound 5 eq
# [5] = tested on: k-RAS (CD) (DNA, G4) AGGGCGGTGTGGGAAGAGGGA; assay: CD melting (265 nm); settings: 50 mM K+, 50 mM LiCl; 20 mM lithium cacodylate, pH 7.2; 10 µM DNA; compound 5 eq
# [6] = tested on: k-RAS (FRET) (DNA, G4) AGGGCGGTGTGGGAAGAGGGA; assay: FRET melting; settings: 60 mM K+, pH 7.4, 0.2 µM DNA
# [7] = tested on: Pu27mut (DNA, G4) TGGGGAGGGTGGAAAGGGTGGGGAAGG; assay: CD titration; settings: 10 mM K+, 2 mM Mg2+, 10 mM (NH4)2SO4; ThermoPol buffer (20 mM Tris-HCl, 0.1% Triton X-100), pH 8.8; parallel G4 induced
# [8] = tested on: T-Loop (t-Loop) (DNA, hairpin) TATAGCTATATTTTTTTATAGCTATA; assay: FRET melting; settings: 60 mM K+, potassium cacodylate, pH 7.4, 0.2 µM DNA
# [9] = tested on: c-MYC (Pu27) (DNA, G4) TGGGGAGGGTGGGGAGGGTGGGGAAGG; assay: CD melting (265 nm); settings: 100 mM LiCl, no K+ listed; 20 mM lithium cacodylate, pH 7.2; 10 µM DNA; compound 5 eq
# [10] = cacodylate, compound 5 µM (25 eq)
binding [2],ΔTm [4] [°C],ΔTm [5] [°C],ΔTm [9] [°C],binding ([3]; topology maintained),SMILES,further results
yes,14.9 ± 0.2,,,,C[n+]1cc(NC(=O)c2cccc(C(=O)Nc3c[n+](C)cc4ccccc34)n2)c2ccccc2c1,"ΔTm ([1]; potassium cacodylate, compound 25 eq (5 µM)): 22.7 ± 0.2 °C; binding ([3]; hybrid to antiparallel switch): yes"
,,> 40,> 40,,C[n+]1cc(NC(=O)c2cccc(C(=O)Nc3cc4ccccc4[n+](C)c3)n2)cc2ccccc21,"ΔTm ([6]; potassium cacodylate, compound 5 eq (1 µM)): 35.6 ± 0.3 °C; binding [7]: yes; ΔTm ([8]; compound 5 eq (1 µM)): 6.5 ± 0.1 °C; binding ([3]; hybrid to parallel switch): yes"
yes,,,,yes,C[n+]1ccc(NC(=O)c2cccc(C(=O)Nc3cc[n+](C)c4ccccc34)n2)c2ccccc21,
yes,4.4 ± 0.2,12.2 ± 0.2,5.3 ± 0.1,yes,C[n+]1ccc2c(NC(=O)c3cccc(C(=O)Nc4cccc5c[n+](C)ccc45)n3)cccc2c1,ΔTm ([8]; compound 25 eq (5 µM)): 1.8 ± 0.2 °C
,,,,,O=C(Nc1ccc2ccccc2n1)c1cccc(C(=O)Nc2ccc3ccccc3n2)n1,"ΔTm [1, 10]: < 0.5 °C"
,,,,,O=C(Nc1cncc2ccccc12)c1cccc(C(=O)Nc2cncc3ccccc23)n1,"ΔTm [6, 10]: < 0.5 °C"
